According to US20110110916A1, “METHODS FOR TREATING AND/OR PREVENTING CARDIOMYOPATHIES BY ERK OR JNK INHIBITION” (priority 2008, published 2011):

Key:
Assay type in all cases: in vivo, mouse
[1] = tested on: hearts from Lmna^H222P/H222P mice; experiment: Quantification of myocardial fibrotic area (Gomori's trichrome); conditions: 20 weeks of age; 3 mg/kg/day from 16 to 20 weeks; DMSO 15.01±0.9%
Excerpt: Later-stage cardiomyopathy caused by LMNA mutations is characterized by myocardial fibrosis. […] We quantified the myocardial fibrotic area of each animal by determining the ratio of fibrotic tissue (blue stained with Gomori's trichrome) to the total tissue area in each micrograph (FIG. 8B). Hearts from DMSO-treated Lmna^H222P/H222P mice had 20.93%±2.45% fibrotic tissue per total surface examined (FIG. 8B).
Mice were sacrificed at 20 weeks of age, and freshly removed hearts were fixed in 4% formaldehyde for 48 hours, embedded in paraffin, sectioned at 5 μm and stained with hematoxylin, eosin and Gomori's trichrome and Syrius Red. Representative stained sections were photographed using a Microphot SA (Nikon) light microscope attached to a Spot RT Slide camera (Diagnostic Instruments) with a 10× objective. Images were processed using Adobe Photoshop CS (Adobe Systems).
Later-stage cardiomyopathy caused by LMNA mutations is characterized by myocardial fibrosis (21,22). […] We quantified the myocardial fibrotic area of each animal by determining the ratio of fibrotic tissue (blue stained with Gomori's trichrome) to the total tissue area in each micrograph (FIG. 34C). Hearts from DMSO-treated Lmna^H222P/H222P mice had 15.01±0.9% fibrotic tissue per total surface examined (FIG. 34D).

Lmna^H222P/H222P mice [2] = conditions: for development of LV dilatation: echocardiography (PD98059 also histopathology); for EF / FS / IVSD / LVEDD / LVESD / LVPW: Lmna^H222P/H222P mice at 16 weeks of age, i.p. 5 days a week from 8 to 16 weeks (PD98059, SP600125 3 mg/kg/day), means ± standard deviations
Protocol: PD98059 (Calbiochem) and SP600125 (Calbiochem) were dissolved in Dimethyl Sulfoxide (DMSO, Sigma) at a concentration of 0.5 mg/ml and were delivered to a dose of 3 mg/kg/day for 5 days a week. […] The placebo control consisted of DMSO alone. Placebo and inhibitors were administered by intraperitoneal injection using a 27G^5/8 syringe. Treatment was started when mice were 8 weeks of age and continued until 16 weeks of age.
Lmna H222P knock-in mice were generated and genotyped as described (14). […] Lmna^H222P/H222P mice were separated by sex and were given either vehicle alone (DMSO), the MEK inhibitor PD98059 alone, the JNK inhibitor SP600125 alone, both PD98059 and SP600125 together, the MEK inhibitor U0126 alone, or the MEK inhibitor MEK1/2 alone. All the mice were fed on a chow diet and housed in a barrier facility. The Institutional Animal Care and Use Committee at Columbia University Medical Center approved the use of animals in the study protocol.
Cardiac function was assessed by echocardiography with a Visualsonics Vevo 770 ultrasound with a 30-MHz transducer applied to the chest wall. Cardiac ventricular dimensions and ejection fraction were measured in 2D-mode and M-mode three times for the number of animals indicated. A “blinded” echocardiographer, unaware of the genotype or treatment, performed the examinations.
We administered PD98059, at a dose of 3 mg/kg/day or 6 mg/kg/day, or placebo (dimethylsulfoxide; DMSO) by intraperitoneal injection 5 days a week to male homozygous Lmna mutant mice (Lmna^H222P/H222P). […] PD98059 mediates its inhibitory properties by binding to MEK, therefore preventing phosphorylation of ERK1/2.
Treatment was initiated at 8 weeks of age and continued until the mice were 16 weeks of age. At 16 weeks of age, the mice were analyzed by echocardiography and then sacrificed for histological and biochemical studies. Untreated male Lmna^+/+ and Lmna^H222P/H222P mice were similarly analyzed for comparisons.

ERK1/2 = experiment: Immunoblot of phosphorylated ERK1/2 versus total ERK1/2 in hearts of treated mice
Protocol: (§1) Hearts were excised from mice at 16-weeks of age and were homogenized in RIPA extraction buffer (Cell Signalling) containing protease inhibitors (25 […]). Protein samples were subjected to SDS-PAGE, transferred to nitrocellulose membranes and blotted with primary antibodies against ERK1/2 (Santa-Cruz), phosphorylated ERK1/2 (Cell Signaling), JNK (Santa-Cruz), natriuretic peptide precursor A (Santa-Cruz), phosphorylated JNK (Cell Signaling), and Gapdh (Ambion). Secondary antibodies were HRP-conjugated (Amersham). Recognized proteins were visualized by enhanced chemiluminescence (ECL, Amersham). The signal generated using an antibody against Gapdh was used as internal controls to normalize the amounts of protein between immunoblots.
We assessed the efficacy of the chemical entities in inhibiting their targets in the heart by immunoblot using anti-total ERK1/2 (Santa Cruz) and anti-pERK1/2 (Cell Signaling) antibodies.
(§2) Proteins were loaded on 10% SDS gels and electrotransferred on a […] pore size nitrocellulose membrane (Invitrogen). We used antibodies directed against phosphorylated ERK1/2 (Cell Signaling, 1:1,000), total ERK1/2 (Santa Cruz, 1:2,000), phosphorylated JNK (Cell Signaling, 1:1,000) and total JNK (Santa Cruz, 1:200). The secondary antibodies were coupled to horseradish-peroxydase (Amersham). Recognized proteins were visualized by enhanced chemiluminescence (SuperSignal® West Pico chemiluminescent substrate, Thermo Scientific).

Lmna^H222P/H222P mice [3] = experiment: Pilot study: echocardiography at 24 weeks of age, treatment from 19 to 24 weeks; conditions: 3 mg/kg/day from 19 to 24 weeks, pilot study n=3
Protocol: SP600125, an anthrapyrazolone inhibitor of JNK, and PD98059, a 2′-amino-3′-methoxyflavone MAPK/ERK kinase (MEK) ½ inhibitor, (Calbiochem) were dissolved in dimethyl sulfoxide (DMSO) (Sigma) at a concentration of 1 mg/ml and were delivered to a dose of 3 mg/kg/day for 5 days a week. The placebo control consisted of DMSO alone and was delivered in the same volume. Placebo and inhibitors were administered by intraperitoneal injection using a 27⅝-gauge syringe. Treatments were started when mice were 16 weeks of age and continued until 20 weeks of age or when the mice were 19 weeks and continued until 24 weeks of age.
At 20 weeks or 24 weeks of age, mice were anesthetized with 1.5% isoflurane in O2 and placed on a heating pad (37° C.). Cardiac function was assessed by echocardiography with a Visualsonics Vevo 770 ultrasound with a 30 MHz transducer applied to the chest wall. Cardiac ventricular dimensions and fractional shortening (FS) were measured in 2D mode and M-mode three times in a modified short axis view for the number of animals indicated. A “blinded” echocardiographer (J.S.), unaware of the genotype or treatment, performed the examinations.
In a pilot study, we assessed treatment of Lmna^H222P/H222P mice with PD98059 and SP600125 at a more advanced stage of disease and for a longer time. […]

JNK = experiment: Immunoblot of phosphorylated JNK versus total JNK in hearts of treated mice; conditions: for phosphorylation of JNK / JNK signaling in heart: treated 8 to 16 weeks of age, 3 mg/kg/day i.p.
Protocol: as §1, §2

[4] = 16 weeks of age, treated 8 to 16 weeks
[5] = 3 mg/kg/day from 16 to 20 weeks of age
[6] = pilot study, 24 week-old mice treated from 19 weeks
[7] = treated 8 to 16 weeks of age, 3 mg/kg/day i.p.

Structure (SMILES)	area of fibrotic tissue per total surface examined [1]	cardiac contractility (ejection fraction and LV fractional shortening) (Lmna^H222P/H222P mice [2]; 16 weeks of age, treated 8 to 16 weeks, compared with Lmna^+/+ mice)	development of LV dilatation (Lmna^H222P/H222P mice [2]; [4])	EF (Lmna^H222P/H222P mice [2]) [%]	FS (Lmna^H222P/H222P mice [2]) [%]	IVSD (Lmna^H222P/H222P mice [2]) [mm]	LVEDD (Lmna^H222P/H222P mice [2]) [mm]	LVESD (Lmna^H222P/H222P mice [2]) [mm]	LVPW (Lmna^H222P/H222P mice [2]) [mm]	phosphorylation of ERK1/2 in hearts (ERK1/2; [5])	phosphorylation of ERK1/2 in hearts (ERK1/2; [6])	phosphorylation of ERK1/2 in hearts (ERK1/2; [7])	LV dilatation and FS compared to DMSO-treated mice (Lmna^H222P/H222P mice [3])	phosphorylation of JNK in hearts (JNK; [5])	phosphorylation of JNK / JNK signaling in heart (JNK)	phosphorylation of JNK in hearts (JNK; [6])
COc1cccc(-c2cc(=O)c3ccccc3o2)c1N [PD98059, 2-(2-amino-3-methoxyphenyl)-4H-1-benzopyran-4-one]	4.48%±1%	normal cardiac contractility	prevented development of LV dilatation	73.52 ± 4.68	41.55 ± 4.29	0.69 ± 0.06	3.12 ± 0.20	1.82 ± 0.16	0.77 ± 0.10	partially blocked	partially blocked	inhibited	decreased LV dilatation and increased FS	not significantly inhibited	did not observe inhibition	
O=C1c2ccccc2-c2n[nH]c3cccc1c23 [SP600125, anthra[1,9-cd]pyrazol-6(2H)-one]	5.86%±0.4%		prevented development of LV dilatation	69.24 ± 9.59	38.70 ± 7.38	0.72 ± 0.07	3.46 ± 0.27	2.30 ± 0.45	0.73 ± 0.08	not significantly inhibited		did not block	trend toward decreased LV dilatation and increased FS	partially blocked	blocked	partially blocked
